Data taken from patent US20060121072A1, “Topical parasiticide formulations and methods of treatment” (priority 2002, published 2006).
Blank lines part the entries; values can stand above or below the molecule they belong to.

Tests used:
[1] = Plasma pharmacokinetics of triclabendazole (with sulphone and sulphoxide metabolites) in cattle; type: in vivo
Protocol: (§1) Formulations according to the invention were tested for their efficacy in delivering benzimidazoles and macrocyclic lactones to the bloodstream of mammals (cattle), and compared to the efficacy in delivering these agents to animals' bloodstreams by standard commercially available drench (Fasinex 120®), and an experimental solvent-based triclabendazole/ivermectin pour-on formulation.
Cattle (typically Hereford or Hereford cross) with either natural or artificially infected burdens of fluke and nematodes were used in pen and field trials. […] Experimental treatments were applied along the backline using a commercially available backliner gun fitted with a plastic shroud to ensure correct delivery of the formulation according to the protocol.
(§2) Blood samples (plasma) were taken by venipuncture of the jugular vein at the designated time intervals. Analysis for triclabendazole and ivermectin residues in the plasma was carried out and reported by commercial contract laboratories.
The triclabendazole was extracted from the plasma using ethyl acetate. Following concentration and SPE clean up, the triclabendazole and its sulphone and sulphoxide metabolites were analysed by reverse phase HPLC using UV detection.

[2] = Plasma pharmacokinetics of ivermectin in cattle; type: in vivo
Protocol: as §1
Cattle (typically Hereford or Hereford cross) with either natural or artificially infected burdens of fluke and nematodes were used in pen and field trials. Within a given trial animals were allotted into treatment groups, each having similar mean weights and fluke and nematode burdens. Experimental treatments were applied along the backline using a commercially available backliner gun fitted with a plastic shroud to ensure correct delivery of the formulation according to the protocol.
as §2
Ivermectin was extracted from the plasma using acetonitrile and concentrated by evaporation. The sample was cleaned up by solid phase extraction (SPE) chromatography and the ivermectin determined as the N-methyl imidazole derivative using reverse phase HPLC with fluorescence detection.

[3] = Table 2 pour-on 90 g/L triclabendazole + 10.0 g/L ivermectin, 1 mL/10 kg, 1.0 mg/kg
[4] = Table 2 pour-on 120 g/L triclabendazole + 5.0 g/L ivermectin, 1 mL/10 kg, 0.5 mg/kg
[5] = Table 2 pour-on 180 g/L triclabendazole + 7.5 g/L ivermectin, 1 mL/10 kg, 0.75 mg/kg
[6] = Table 3 pour-on 240 g/L triclabendazole + 3.33 g/L ivermectin (triethanolamine), 1 ml/6.67 kg, 0.5 mg/kg
[7] = Table 3 pour-on 240 g/L triclabendazole + 5 g/L ivermectin (sodium dodecyl sulphate), 1 ml/10 kg, 0.5 mg/kg
[8] = Table 3 pour-on 240 g/L triclabendazole + 10 g/L ivermectin (triethanolamine), 1 ml/20 kg, 0.5 mg/kg
[9] = Table 4 pour-on 180 g/L triclabendazole + 7.5 g/L ivermectin, 1 mL/15 kg, mean treatment area 110 cm^2, 0.5 mg/kg
[10] = Table 4 pour-on 240 g/L triclabendazole + 10.0 g/L ivermectin, 1 mL/20 kg, mean treatment area 76 cm^2, 0.5 mg/kg

Triclabendazole AUC ([1]; Table 2 pour-on 90 g/L triclabendazole + 10.0 g/L ivermectin, 1 mL/10 kg, 9.0 mg/kg): 72 µg·days/mL | Triclabendazole AUC ([1]; Table 2 pour-on 120 g/L triclabendazole + 5.0 g/L ivermectin, 1 mL/10 kg, 12 mg/kg): 85 µg·days/mL | Triclabendazole AUC ([1]; Table 2 pour-on 180 g/L triclabendazole + 7.5 g/L ivermectin, 1 mL/10 kg, 18 mg/kg): 139 µg·days/mL | Triclabendazole AUC ([1]; Table 3 pour-on 240 g/L triclabendazole + 3.33 g/L ivermectin (triethanolamine), 1 ml/6.67 kg, 36 mg/kg): 177 µg·days/mL | Triclabendazole AUC ([1]; Table 3 pour-on 240 g/L triclabendazole + 5 g/L ivermectin (sodium dodecyl sulphate), 1 ml/10 kg, 24 mg/kg): 129 µg·days/mL | Triclabendazole AUC ([1]; Table 3 pour-on 240 g/L triclabendazole + 10 g/L ivermectin (triethanolamine), 1 ml/20 kg, 12 mg/kg): 73 µg·days/mL | Triclabendazole AUC ([1]; Table 4 pour-on 180 g/L triclabendazole + 7.5 g/L ivermectin, 1 mL/15 kg, mean treatment area 110 cm^2, 12.0 mg/kg): 65 µg·days/mL | Triclabendazole AUC ([1]; Table 4 pour-on 240 g/L triclabendazole + 10.0 g/L ivermectin, 1 mL/20 kg, mean treatment area 76 cm^2, 12.0 mg/kg): 170 µg·days/mL
Molecule: CSc1nc2cc(Cl)c(Oc3cccc(Cl)c3Cl)cc2[nH]1 [Triclabendazole, 5-chloro-6-(2,3-dichlorophenoxy)-2-(methylthio)-benzimidazole]

Molecule: 22,23-dihydroavermectin B1 [Ivermectin]
Ivermectin AUC [2, 3]: 88 ng·days/mL | Ivermectin Mean plasma [2, 3]: 4.4 ng/mL | Ivermectin Plasma Cmax [2, 3]: 8 ng/mL | Ivermectin Tmax [2, 3]: 5 days | Ivermectin AUC [2, 4]: 52 ng·days/mL | Ivermectin Mean plasma [2, 4]: 2.5 ng/mL | Ivermectin Plasma Cmax [2, 4]: 8 ng/mL | Ivermectin Tmax [2, 4]: 5 days | Ivermectin AUC [2, 5]: 79 ng·days/mL | Ivermectin Mean plasma [2, 5]: 4.1 ng/mL | Ivermectin Plasma Cmax [2, 5]: 13 ng/mL | Ivermectin Tmax [2, 5]: 5 days | Ivermectin AUC [2, 6]: 82 ng·days/mL | Ivermectin Plasma Cmax [2, 6]: 7.5 ng/mL | Ivermectin Tmax [2, 6]: 7 days | Ivermectin AUC [2, 7]: 84 ng·days/mL | Ivermectin Plasma Cmax [2, 7]: 9.5 ng/mL | Ivermectin Tmax [2, 7]: 5 days | Ivermectin AUC [2, 8]: 104 ng·days/mL | Ivermectin Plasma Cmax [2, 8]: 10.4 ng/mL | Ivermectin Tmax [2, 8]: 7 days | Ivermectin AUC [2, 9]: 30 ng·days/mL | Ivermectin Mean plasma conc^n [2, 9]: 1.7 ng/mL | Ivermectin AUC [2, 10]: 43 ng·days/mL | Ivermectin Mean plasma conc^n [2, 10]: 2.2 ng/mL
